pIC50: −log10 of the molar value.
Target: T1, human TRPV4 (Homo sapiens, UniProt Q9HBA0)
T1 construct: host or cells: tetracycline-inducible Flp-In T-REx 293 cells
Experiment: Hypotonicity-induced Ca2+ influx (Fluo-4, FDSS)
Format: cell-based
Method in brief: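 Flp-In T-REx 293 cells with tetracycline-induced human TRPV4, loaded with Fluo-4 for 60 min at 25 °C. Compound added 5 min before hypotonic mannitol/CaCl2 solution. Ca2+ signal recorded for 4.5 min on FDSS.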

[1] = Flp-In T-REx 293 cells expressing human TRPV4, examples listed under heading 'Human IC50<50 nM'
[2] = Flp-In T-REx 293 cells stably expressing human TRPV4, compounds listed by potency bin (<10 nM Tables 96-1/96-2, <3 nM Table 97)

T1 sequence (Q9HBA0 whole entry): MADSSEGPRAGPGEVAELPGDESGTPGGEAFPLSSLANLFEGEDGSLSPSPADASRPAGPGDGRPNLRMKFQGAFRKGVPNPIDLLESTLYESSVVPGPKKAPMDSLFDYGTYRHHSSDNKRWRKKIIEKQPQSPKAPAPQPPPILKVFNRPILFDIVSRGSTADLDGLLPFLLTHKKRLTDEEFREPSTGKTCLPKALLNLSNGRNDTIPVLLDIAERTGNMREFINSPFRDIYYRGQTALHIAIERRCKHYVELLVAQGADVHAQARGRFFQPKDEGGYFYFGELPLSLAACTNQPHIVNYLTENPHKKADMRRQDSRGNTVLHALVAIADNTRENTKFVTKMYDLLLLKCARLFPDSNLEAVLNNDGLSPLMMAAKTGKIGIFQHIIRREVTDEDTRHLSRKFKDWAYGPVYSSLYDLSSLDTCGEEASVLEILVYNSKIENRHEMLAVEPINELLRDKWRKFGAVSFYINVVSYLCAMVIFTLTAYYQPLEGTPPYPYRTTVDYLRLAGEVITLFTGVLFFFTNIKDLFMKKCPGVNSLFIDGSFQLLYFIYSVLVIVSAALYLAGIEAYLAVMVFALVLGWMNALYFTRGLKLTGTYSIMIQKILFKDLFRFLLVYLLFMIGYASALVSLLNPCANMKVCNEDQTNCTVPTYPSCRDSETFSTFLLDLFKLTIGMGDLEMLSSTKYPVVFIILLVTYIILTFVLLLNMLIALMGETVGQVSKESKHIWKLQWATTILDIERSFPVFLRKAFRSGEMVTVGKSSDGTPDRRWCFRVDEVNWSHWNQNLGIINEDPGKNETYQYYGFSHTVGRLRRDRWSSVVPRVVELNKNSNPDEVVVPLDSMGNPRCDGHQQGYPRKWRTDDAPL

| pIC50 [1] | pIC50 [2] | Compound |
| --- | --- | --- |
| > 7.30 | > 8.52 | N#Cc1ccc(-c2cccc([C@@H](O)C(=O)N3CCCc4nc(C5(c6cccc(Cl)c6)CC5)[nH]c(=O)c4C3)c2)cc1 [50-20] |
| > 7.30 | > 8.00 | CC(C)(C)c1cccc(-c2cccc(C(O)C(=O)N3CCCc4nc(C5(c6ccccc6)CC5)[nH]c(=O)c4C3)c2)c1 (stereo not shown) [49-10] |
| > 7.30 |  | Cc1ccc(-c2cccc(C(O)C(=O)N3CCc4nc(C5(c6ccccc6)CC5)[nH]c(=O)c4C3)c2)cc1Cl (stereo not shown) [44-26] |
| > 7.30 |  | O=C([C@H](O)c1cccc(-c2ccc3cccnc3c2)c1)N1CCc2nc(C3(c4ccccc4)CC3)[nH]c(=O)c2C1 [44-90] |
| > 7.30 | > 8.00 | O=C([C@H](O)c1cccc(Cl)c1)N1CCCc2nc(C3(c4cccc(-c5cccc(Cl)c5)c4)CC3)[nH]c(=O)c2C1 [40-6] |
| > 7.30 | > 8.00 | CC(C)c1csc(C2(c3nc4c(c(=O)[nH]3)CN(C(=O)C(O)c3cccc(C(C)(C)C)c3)CC4)CC2)c1 (stereo not shown) [15-24] |
| > 7.30 | > 8.00 | CN1CCc2cc(-c3cccc(C4(c5nc6c(c(=O)[nH]5)CN(C(=O)[C@H](O)c5cccc(C(F)(F)F)c5)CCC6)CC4)c3)ccc21 [42-50] |
| > 7.30 |  | O=C([C@H](O)c1cccc(Cl)c1)N1CCCc2nc(C3(c4ccccc4)CC3)[nH]c(=O)c2C1 [10-7] |
| > 7.30 | > 8.52 | O=C([C@H](O)c1cccc(C(F)(F)F)c1)N1CCc2nc(C3(c4cccc(-c5cnsc5)c4)CC3)[nH]c(=O)c2C1 [37-3] |
| > 7.30 | > 8.00 | O=C(C(O)c1cccc(-c2cccc(Cl)c2)c1)N1CCCc2nc(C3(c4ccccc4)CC3)[nH]c(=O)c2C1 (stereo not shown) [49-6] |
| > 7.30 | > 8.52 | O=C([C@H](O)c1cccc(-c2cc3ccccc3o2)c1)N1CCCc2nc(C3(c4ccccc4)CC3)[nH]c(=O)c2C1 [49-25] |
| > 7.30 | > 8.52 | CC(C)c1cccc(C2(c3nc4c(c(=O)[nH]3)CN(C(=O)[C@H](O)c3cccc(-c5ccnc(C(F)(F)F)c5)c3)CCC4)CC2)c1 [51-6] |
| > 7.30 |  | O=C(C(O)c1cccc(SC(F)(F)F)c1)N1CCc2nc(C3(c4ccccc4)CC3)[nH]c(=O)c2C1 (stereo not shown) [14-25] |
| > 7.30 | > 8.00 | CC(C)(C)c1cccc(C(O)C(=O)N2CCc3nc(C4(c5cccc(Cl)c5)CC4)[nH]c(=O)c3C2)c1 (stereo not shown) [14-11] |
| > 7.30 |  | O=C(C(O)c1cccc(-c2ccc(Cl)s2)c1)N1CCc2nc(C3(c4ccccc4)CC3)[nH]c(=O)c2C1 (stereo not shown) [44-30] |
| > 7.30 | > 8.52 | CC(C)c1cccc(C2(c3nc4c(c(=O)[nH]3)CN(C(=O)[C@H](O)c3cccc(C(F)(F)F)c3)CCC4)CC2)c1 [31-8] |
| > 7.30 | > 8.52 | CC(C)c1csc(C2(c3nc4c(c(=O)[nH]3)CN(C(=O)C(F)(F)c3cccc(Cl)c3)CCC4)CC2)c1 [21-3] |
| > 7.30 | > 8.52 | CC(C)c1cncc(C2(c3nc4c(c(=O)[nH]3)CN(C(=O)[C@H](O)c3cccc(-c5cccc(Cl)c5)c3)CCC4)CC2)c1 [55-8] |
| > 7.30 | > 8.00 | CC(C)c1cccc(C2(c3nc4c(c(=O)[nH]3)CN(C(=O)C(O)c3cccc(C(F)(F)F)c3F)CC4)CC2)c1 (stereo not shown) [14-109] |

| pIC50 [1] | pIC50 [2] | Compound |
| --- | --- | --- |
| > 7.30 | > 8.00 | CC(C)(C)c1cccc(-c2cccc([C@@H](O)C(=O)N3CCCc4c(nc(C5(c6ccccc6)CC5)[nH]c4=O)C3)c2)c1 [49-55] |
| > 7.30 | > 8.00 | O=C(C(O)c1cccc(-c2cccc(OC(F)(F)F)c2)c1)N1CCc2nc(C3(c4cccc(F)c4)CC3)[nH]c(=O)c2C1 (stereo not shown) [14-7] |
| > 7.30 | > 8.52 | O=C([C@H](O)c1cccc(C(F)(F)F)c1)N1CCCc2nc(C3(c4cc(-c5ccccc5)cs4)CC3)[nH]c(=O)c2C1 [41-1] |
| > 7.30 | > 8.00 | CC(C)c1cccc(-c2cccc([C@@H](O)C(=O)N3CCCc4nc(C5(c6cccs6)CC5)[nH]c(=O)c4C3)c2)c1 [53-3] |
| > 7.30 | > 8.00 | CC(C)c1cncc(C2(c3nc4c(c(=O)[nH]3)CN(C(=O)[C@H](O)c3cccc(-c5cccc(C(F)(F)F)c5)c3)CCC4)CC2)c1 [55-5] |
| > 7.30 |  | Cc1ccc(F)cc1-c1cccc(C(O)C(=O)N2CCc3nc(C4(c5ccccc5)CC4)[nH]c(=O)c3C2)c1 (stereo not shown) [44-39] |
| > 7.30 | > 8.00 | O=C([C@H](O)c1cccc(-c2cccc(C3CC3)c2)c1)N1CCCc2nc(C3(c4cccc(Cl)c4)CC3)[nH]c(=O)c2C1 [50-10] |
| > 7.30 | > 8.52 | O=C([C@H](O)c1cccc(-c2cc(Cl)cc(C(F)(F)F)c2)c1)N1CCCc2nc(C3(c4ccccc4)CC3)[nH]c(=O)c2C1 [49-36] |
| > 7.30 | > 8.52 | O=C([C@H](O)c1cccc(Cl)c1)N1CCCc2nc(C3(c4cccc(-c5ccccc5)c4)CC3)[nH]c(=O)c2C1 [40-1] |
| > 7.30 | > 8.00 | O=C(Cc1cccc(-c2ccc(C(F)(F)F)cc2)c1)N1CCCc2nc(C3(c4cccc(Cl)c4)CC3)[nH]c(=O)c2C1 [17-128] |
| > 7.30 |  | O=C(C(O)c1cccc(S(F)(F)(F)(F)F)c1)N1CCc2nc(C3(c4cccc(F)c4)CC3)[nH]c(=O)c2C1 (stereo not shown) [14-23] |
| > 7.30 | > 8.00 | O=C([C@H](O)c1cccc(C(F)(F)F)c1)N1CCCc2nc(C3(c4cc(CCc5ccccc5)cs4)CC3)[nH]c(=O)c2C1 [30-9] |
| > 7.30 | > 8.00 | O=C(C(O)c1cccc(S(F)(F)(F)(F)F)c1)N1CCCc2nc(C3(c4cccc(Cl)c4)CC3)[nH]c(=O)c2C1 (stereo not shown) [17-27] |
| > 7.30 |  | O=C(C(O)c1cccc(Cl)c1F)N1CCc2nc(C3(c4ccccc4)CC3)[nH]c(=O)c2C1 (single isomer, unassigned) [3-69] |
| > 7.30 | > 8.00 | O=C(Cc1cccc(-c2cccc(OC(F)(F)F)c2)c1)N1CCc2nc(C3(c4cccc(Cl)c4)CC3)[nH]c(=O)c2C1 [45-12] |
| > 7.30 | > 8.00 | O=C([C@H](O)c1cccc(-c2cccc(OC(F)(F)F)c2)c1)N1CCc2nc(C3(c4cccc(Cl)c4)CC3)[nH]c(=O)c2C1 [45-7] |
| > 7.30 | > 8.00 | O=C(Cc1cccc(-c2cccc(OC(F)(F)F)c2)c1)N1CCCc2nc(C3(c4cccc(Cl)c4)CC3)[nH]c(=O)c2C1 [57-8] |
| > 7.30 | > 8.52 | O=C(N1CCCc2nc(C3(c4cccc(Cl)c4)CC3)[nH]c(=O)c2C1)C(F)(F)c1cccc(Cl)c1 [20-2] |
| > 7.30 | > 8.00 | CC(C)c1csc(C2(c3nc4c(c(=O)[nH]3)CN(C(=O)C(O)c3cccc(SC(F)(F)F)c3)CCC4)CC2)c1 (stereo not shown) [18-19] |

| pIC50 [1] | pIC50 [2] | Compound |
| --- | --- | --- |
| > 7.30 | > 8.00 | CC(C)N(Cc1ccccc1)C(=O)c1csc(C2(c3nc4c(c(=O)[nH]3)CN(C(=O)[C@H](O)c3cccc(C(F)(F)F)c3)CCC4)CC2)c1 [59-1] |
| > 7.30 | > 8.00 | CC(C)c1cncc(C2(c3nc4c(c(=O)[nH]3)CN(C(=O)[C@H](O)c3cccc(C(F)(F)F)c3)CCC4)CC2)c1 [19-2] |
| > 7.30 | > 8.00 | O=C([C@H](O)c1cccc(-c2cccc(F)c2)c1)N1CCCc2nc(C3(c4ccccc4)CC3)[nH]c(=O)c2C1 [49-12] |
| > 7.30 | > 8.00 | O=C(Cc1cccc(C(F)(F)F)c1F)N1CCCc2nc(C3(c4ccccc4)CC3)[nH]c(=O)c2C1 [17-11] |
| > 7.30 | > 8.00 | O=C(Cc1cccc(C2CC2)c1)N1CCCc2nc(C3(c4cccc(Cl)c4)CC3)[nH]c(=O)c2C1 [17-116] |
| > 7.30 | > 8.00 | CC(C)c1csc(C2(c3nc4c(c(=O)[nH]3)CN(C(=O)[C@H](O)c3cccc(-c5cccc(OC(F)(F)F)c5)c3)CCC4)CC2)c1 [54-2] |
| > 7.30 |  | O=C([C@H](O)c1cccc(Cl)c1)N1CCc2nc(C3(c4cc(Cl)cs4)CC3)[nH]c(=O)c2C1 [15-14] |
| > 7.30 | > 8.00 | O=C([C@H](O)c1cccc(C(F)(F)F)c1)N1CCCc2nc(C3(c4cccc(-c5cnn(C(F)F)c5)c4)CC3)[nH]c(=O)c2C1 [42-21] |
| > 7.30 | > 8.52 | Cn1ncc2c(-c3cccc(C4(c5nc6c(c(=O)[nH]5)CN(C(=O)[C@H](O)c5cccc(Cl)c5)CCC6)CC4)c3)cccc21 [40-10] |
| > 7.30 |  | COCCOc1cccc(-c2cccc(C(O)C(=O)N3CCc4nc(C5(c6ccccc6)CC5)[nH]c(=O)c4C3)c2)c1 (stereo not shown) [44-29] |
| > 7.30 | > 8.00 | N#Cc1ccc(-c2cccc(C3(c4nc5c(c(=O)[nH]4)CN(C(=O)[C@H](O)c4cccc(C(F)(F)F)c4)CCC5)CC3)c2)cc1F [42-67] |
| > 7.30 | > 8.00 | O=C(C(O)c1cccc(-c2cccc(C3CC3)c2)n1)N1CCc2nc(C3(c4ccccc4)CC3)[nH]c(=O)c2C1 (stereo not shown) [48-6] |
| > 7.30 | > 8.52 | O=C([C@H](O)c1cccc(C(F)(F)F)c1)N1CCCc2nc(C3(c4cccc(-c5cnn(C6CC6)c5)c4)CC3)[nH]c(=O)c2C1 [42-6] |
| > 7.30 | > 8.52 | CC(C)c1csc(C2(c3nc4c(c(=O)[nH]3)CN(C(=O)[C@H](O)c3cccc(-c5cccc(C(C)(C)C)c5)c3)CCC4)CC2)c1 [54-1] |
| > 7.30 | > 8.00 | O=C([C@H](O)c1cccc(-c2cc(Cl)ccc2Cl)c1)N1CCc2nc(C3(c4ccccc4)CC3)[nH]c(=O)c2C1 [44-108] |
| > 7.30 |  | COc1ccc(-c2cccc(C(O)C(=O)N3CCc4nc(C5(c6ccccc6)CC5)[nH]c(=O)c4C3)c2)cc1 (stereo not shown) [44-58] |
| > 7.30 | > 8.00 | O=C(C(O)c1cccc(S(F)(F)(F)(F)F)c1)N1CCCc2nc(C3(c4cccs4)CC3)[nH]c(=O)c2C1 (stereo not shown) [18-8] |
| > 7.30 | > 8.00 | O=C(Cc1cccc(-c2cccc(Cl)c2)c1)N1CCCc2nc(C3(c4cc(-c5ccccc5)cs4)CC3)[nH]c(=O)c2C1 [18-27] |
| > 7.30 | > 8.00 | CC(C)c1cccc(C2(c3nc4c(c(=O)[nH]3)CN(C(=O)C(F)(F)c3cccc(C(F)(F)F)c3)CCC4)CC2)c1 [20-6] |
